Assays:
CD45 = CD45 (Homo sapiens, UniProt P08575); assay: PTP inhibition assay (pNPP); type: biochemical
Method: (§1) PTP activity was assayed using p-nitrophenyl phosphate (pNPP) as a substrate in DMG buffer (50 mM DMG, pH 7.0, 1 mM EDTA, 150 mM NaCl, 2 mM DTT, 0.1 mg/mL BSA) at 25 °C. The assays were performed in 96-well plates. To determine the IC50 values, the reaction was initiated by the addition of enzyme (final concentration = 10 nM) to a reaction mixture (0.2 mL) containing pNPP (at a final concentration close to the Kms of tested enzymes, in specific: 0.05 mM for CDC-14A; 0.5 mM for FAP-1; 2 mM for TC-PTP, PTP1B, STEP, LWM-PTP, and PTPα; 3 mM for SHP1; 4 mM for Laforin; 5 mM for LYP, CD45, and VHR; 6 mM for PTP-MEG2 and HePTP) with various concentrations of inhibitors. The reaction rate was measured using a SpectraMax Plus 384 Microplate Spectrophotometer (Molecular Devices, San Jose, CA, USA). Data were fitted using the SigmaPlot Enzyme Kinetics Module (Systat Software, Inc., San Jose, CA, USA).

CDC-14A = CDC-14A (Homo sapiens, UniProt Q9UNH5); assay: PTP inhibition assay (pNPP); type: biochemical
CDC-14A, sequence (Q9UNH5 whole entry, species assumed): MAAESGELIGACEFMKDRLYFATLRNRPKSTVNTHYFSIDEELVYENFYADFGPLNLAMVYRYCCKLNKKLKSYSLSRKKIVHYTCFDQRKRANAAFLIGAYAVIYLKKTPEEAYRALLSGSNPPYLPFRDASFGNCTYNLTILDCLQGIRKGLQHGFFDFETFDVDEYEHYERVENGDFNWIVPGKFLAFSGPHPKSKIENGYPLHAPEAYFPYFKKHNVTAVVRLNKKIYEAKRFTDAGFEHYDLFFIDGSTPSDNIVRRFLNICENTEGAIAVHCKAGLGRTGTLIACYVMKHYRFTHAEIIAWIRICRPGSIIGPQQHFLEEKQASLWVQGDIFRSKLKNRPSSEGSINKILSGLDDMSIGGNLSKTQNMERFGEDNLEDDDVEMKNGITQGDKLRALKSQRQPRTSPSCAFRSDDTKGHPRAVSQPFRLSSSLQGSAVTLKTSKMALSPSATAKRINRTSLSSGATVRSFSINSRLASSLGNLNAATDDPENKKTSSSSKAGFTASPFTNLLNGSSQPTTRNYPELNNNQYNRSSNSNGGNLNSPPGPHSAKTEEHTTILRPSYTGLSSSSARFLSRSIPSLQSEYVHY
Method: as §1

FAP-1 = FAP-1 (Homo sapiens, UniProt Q12923); assay: PTP inhibition assay (pNPP); type: biochemical
FAP-1, sequence (Q12923 whole entry, species assumed): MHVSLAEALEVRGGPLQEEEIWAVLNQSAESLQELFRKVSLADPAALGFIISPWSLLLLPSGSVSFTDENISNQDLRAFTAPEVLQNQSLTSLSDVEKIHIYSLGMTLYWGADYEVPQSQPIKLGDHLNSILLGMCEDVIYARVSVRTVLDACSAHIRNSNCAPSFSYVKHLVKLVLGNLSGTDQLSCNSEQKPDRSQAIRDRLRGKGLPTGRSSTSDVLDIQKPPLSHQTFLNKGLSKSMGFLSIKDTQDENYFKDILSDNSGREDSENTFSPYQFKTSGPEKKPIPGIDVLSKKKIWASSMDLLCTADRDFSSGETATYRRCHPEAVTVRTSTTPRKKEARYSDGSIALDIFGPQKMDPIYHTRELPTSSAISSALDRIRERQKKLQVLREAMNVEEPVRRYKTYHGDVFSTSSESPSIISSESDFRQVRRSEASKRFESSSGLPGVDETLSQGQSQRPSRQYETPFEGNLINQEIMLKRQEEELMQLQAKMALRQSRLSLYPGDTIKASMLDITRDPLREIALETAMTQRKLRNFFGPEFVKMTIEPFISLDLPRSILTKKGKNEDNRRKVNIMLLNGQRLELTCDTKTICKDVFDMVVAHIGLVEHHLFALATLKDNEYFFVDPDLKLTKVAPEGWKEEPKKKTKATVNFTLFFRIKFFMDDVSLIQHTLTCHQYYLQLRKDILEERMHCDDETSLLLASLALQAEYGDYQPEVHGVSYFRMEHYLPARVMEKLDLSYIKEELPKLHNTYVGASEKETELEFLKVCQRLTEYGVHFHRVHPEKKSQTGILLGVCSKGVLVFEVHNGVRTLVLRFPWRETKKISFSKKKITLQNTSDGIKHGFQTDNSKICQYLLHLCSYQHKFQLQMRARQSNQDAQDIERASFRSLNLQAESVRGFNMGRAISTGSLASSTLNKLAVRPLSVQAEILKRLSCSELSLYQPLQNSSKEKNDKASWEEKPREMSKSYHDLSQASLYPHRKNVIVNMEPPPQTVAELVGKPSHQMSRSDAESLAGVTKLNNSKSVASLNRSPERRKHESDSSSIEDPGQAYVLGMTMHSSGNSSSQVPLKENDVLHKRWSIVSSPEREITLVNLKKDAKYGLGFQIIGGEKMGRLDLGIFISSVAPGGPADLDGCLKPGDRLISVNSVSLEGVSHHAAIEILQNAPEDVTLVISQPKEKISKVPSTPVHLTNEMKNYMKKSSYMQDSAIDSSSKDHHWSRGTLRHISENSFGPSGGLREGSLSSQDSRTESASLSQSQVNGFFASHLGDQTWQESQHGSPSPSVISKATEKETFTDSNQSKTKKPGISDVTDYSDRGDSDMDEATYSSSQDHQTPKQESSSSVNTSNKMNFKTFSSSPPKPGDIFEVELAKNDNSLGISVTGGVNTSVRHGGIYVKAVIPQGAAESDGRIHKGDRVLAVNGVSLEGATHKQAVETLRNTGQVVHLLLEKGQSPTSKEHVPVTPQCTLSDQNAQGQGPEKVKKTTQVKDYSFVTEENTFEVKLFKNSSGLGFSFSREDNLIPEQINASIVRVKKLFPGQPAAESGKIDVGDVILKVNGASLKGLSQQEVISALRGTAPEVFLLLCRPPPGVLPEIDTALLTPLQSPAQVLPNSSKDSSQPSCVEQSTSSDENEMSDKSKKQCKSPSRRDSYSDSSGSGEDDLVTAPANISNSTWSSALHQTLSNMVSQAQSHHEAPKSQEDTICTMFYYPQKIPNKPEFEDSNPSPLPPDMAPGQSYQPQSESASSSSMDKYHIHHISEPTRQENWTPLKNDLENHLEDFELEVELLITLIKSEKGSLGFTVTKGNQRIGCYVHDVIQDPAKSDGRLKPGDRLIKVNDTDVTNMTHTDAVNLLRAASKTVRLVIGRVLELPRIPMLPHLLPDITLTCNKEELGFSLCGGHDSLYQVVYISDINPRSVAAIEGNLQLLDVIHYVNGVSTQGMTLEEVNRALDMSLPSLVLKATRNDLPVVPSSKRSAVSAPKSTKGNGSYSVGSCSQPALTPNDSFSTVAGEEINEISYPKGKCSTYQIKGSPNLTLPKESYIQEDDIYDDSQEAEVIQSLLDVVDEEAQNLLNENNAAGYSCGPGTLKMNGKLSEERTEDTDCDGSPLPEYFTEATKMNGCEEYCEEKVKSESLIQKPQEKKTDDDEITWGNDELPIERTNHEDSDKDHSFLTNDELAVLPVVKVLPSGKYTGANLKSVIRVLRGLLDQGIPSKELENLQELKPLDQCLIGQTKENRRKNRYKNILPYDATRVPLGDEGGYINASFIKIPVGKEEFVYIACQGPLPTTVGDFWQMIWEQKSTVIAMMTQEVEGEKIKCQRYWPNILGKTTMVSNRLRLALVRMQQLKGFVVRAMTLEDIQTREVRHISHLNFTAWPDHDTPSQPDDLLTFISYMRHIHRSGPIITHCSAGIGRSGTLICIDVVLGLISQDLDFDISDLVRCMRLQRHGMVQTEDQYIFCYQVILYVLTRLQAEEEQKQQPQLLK
Method: as §1

HePTP = HePTP (Homo sapiens, UniProt P35236); assay: PTP inhibition assay (pNPP); type: biochemical
HePTP, sequence (P35236 whole entry, species assumed): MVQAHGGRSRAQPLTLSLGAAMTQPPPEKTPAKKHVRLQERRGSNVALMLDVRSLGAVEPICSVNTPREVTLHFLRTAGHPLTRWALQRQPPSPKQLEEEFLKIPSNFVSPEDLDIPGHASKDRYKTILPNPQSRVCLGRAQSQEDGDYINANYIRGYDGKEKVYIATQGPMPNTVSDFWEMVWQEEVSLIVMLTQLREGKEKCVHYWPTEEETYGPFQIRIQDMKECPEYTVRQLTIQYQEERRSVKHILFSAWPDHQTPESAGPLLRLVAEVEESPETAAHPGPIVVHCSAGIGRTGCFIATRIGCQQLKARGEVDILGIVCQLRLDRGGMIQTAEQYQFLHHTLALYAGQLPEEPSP
Method: as §1

LMW-PTP = LMW-PTP (Homo sapiens, UniProt P24666); assay: PTP inhibition assay (pNPP); type: biochemical
LMW-PTP, sequence (P24666 whole entry, species assumed): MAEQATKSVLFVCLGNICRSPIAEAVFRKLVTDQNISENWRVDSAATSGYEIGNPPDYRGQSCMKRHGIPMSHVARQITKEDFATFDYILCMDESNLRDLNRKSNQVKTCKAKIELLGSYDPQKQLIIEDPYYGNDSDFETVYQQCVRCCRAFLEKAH
Method: as §1

LYP = LYP (Homo sapiens, UniProt Q9Y2R2); assay: PTP inhibition assay (pNPP); type: biochemical
Method: as §1

Laforin = Laforin (Homo sapiens, UniProt O95278); assay: PTP inhibition assay (pNPP); type: biochemical
Method: as §1

PTP-MEG2 = PTP-MEG2 (Homo sapiens, UniProt P43378); assay: PTP inhibition assay (pNPP); type: biochemical
PTP-MEG2, sequence (P43378 whole entry): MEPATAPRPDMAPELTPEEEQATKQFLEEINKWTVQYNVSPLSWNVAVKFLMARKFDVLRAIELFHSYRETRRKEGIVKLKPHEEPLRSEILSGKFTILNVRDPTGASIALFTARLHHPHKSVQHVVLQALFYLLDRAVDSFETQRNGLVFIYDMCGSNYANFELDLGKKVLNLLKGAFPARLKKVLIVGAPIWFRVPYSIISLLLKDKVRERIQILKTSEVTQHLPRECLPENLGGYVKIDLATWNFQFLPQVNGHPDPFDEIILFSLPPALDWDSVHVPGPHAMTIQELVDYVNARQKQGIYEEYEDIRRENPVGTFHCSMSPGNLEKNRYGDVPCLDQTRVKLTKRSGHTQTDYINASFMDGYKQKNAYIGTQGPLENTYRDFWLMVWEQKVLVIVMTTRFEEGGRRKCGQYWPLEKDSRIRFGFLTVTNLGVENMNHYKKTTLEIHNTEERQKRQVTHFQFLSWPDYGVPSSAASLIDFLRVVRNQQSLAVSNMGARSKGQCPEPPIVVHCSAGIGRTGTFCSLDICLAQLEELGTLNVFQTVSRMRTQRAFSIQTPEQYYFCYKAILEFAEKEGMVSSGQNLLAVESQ
Method: as §1

PTP-α = PTP-α (Homo sapiens, UniProt P18433); assay: PTP inhibition assay (pNPP); type: biochemical
PTP-α, sequence (P18433 20-802): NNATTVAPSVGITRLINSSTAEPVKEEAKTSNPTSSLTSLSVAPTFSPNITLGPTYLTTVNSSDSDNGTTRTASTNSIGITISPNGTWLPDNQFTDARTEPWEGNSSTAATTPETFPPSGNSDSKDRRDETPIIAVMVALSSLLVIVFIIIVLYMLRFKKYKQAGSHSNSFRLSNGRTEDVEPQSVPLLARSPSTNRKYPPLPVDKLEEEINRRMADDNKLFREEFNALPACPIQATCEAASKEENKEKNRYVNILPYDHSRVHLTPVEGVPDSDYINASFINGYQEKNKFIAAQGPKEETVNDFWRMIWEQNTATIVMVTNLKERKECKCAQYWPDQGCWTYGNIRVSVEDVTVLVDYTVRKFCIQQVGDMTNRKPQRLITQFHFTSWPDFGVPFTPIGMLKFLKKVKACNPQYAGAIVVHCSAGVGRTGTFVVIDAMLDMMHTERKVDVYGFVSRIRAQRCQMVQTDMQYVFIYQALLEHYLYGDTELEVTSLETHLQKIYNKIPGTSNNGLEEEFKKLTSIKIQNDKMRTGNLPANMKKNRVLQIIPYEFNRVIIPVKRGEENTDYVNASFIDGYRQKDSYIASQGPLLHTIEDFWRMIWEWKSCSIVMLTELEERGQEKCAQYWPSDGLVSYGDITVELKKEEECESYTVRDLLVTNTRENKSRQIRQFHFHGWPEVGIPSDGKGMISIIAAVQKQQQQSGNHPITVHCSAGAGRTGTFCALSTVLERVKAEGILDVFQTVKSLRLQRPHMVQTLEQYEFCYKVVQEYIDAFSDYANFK
Method: as §1

PTP1B = PTP1B (Homo sapiens, UniProt P18031); assay: PTP inhibition assay (pNPP); type: biochemical
Method: as §1

SHP1 = SHP1 (Homo sapiens, UniProt P29350); assay: PTP inhibition assay (pNPP); type: biochemical
Method: as §1

STEP = STEP (Homo sapiens, UniProt P54829); assay: PTP inhibition assay (pNPP); type: biochemical
Method: as §1

TC-PTP = TC-PTP (Homo sapiens, UniProt P17706); assay: PTP inhibition assay (pNPP); type: biochemical
Method: as §1

VHR = VHR (Homo sapiens, UniProt P51452); assay: PTP inhibition assay (pNPP); type: biochemical
Method: as §1

SHP2 = biological target: T1, SHP2 (Homo sapiens, UniProt Q06124); assay: SHP2 degradation by Western blotting in KYSE-520 cells; type: cell-based; parameters: endogenous in cells; host or cells: KYSE-520; details: 16 h
T1 sequence (Q06124 1-593): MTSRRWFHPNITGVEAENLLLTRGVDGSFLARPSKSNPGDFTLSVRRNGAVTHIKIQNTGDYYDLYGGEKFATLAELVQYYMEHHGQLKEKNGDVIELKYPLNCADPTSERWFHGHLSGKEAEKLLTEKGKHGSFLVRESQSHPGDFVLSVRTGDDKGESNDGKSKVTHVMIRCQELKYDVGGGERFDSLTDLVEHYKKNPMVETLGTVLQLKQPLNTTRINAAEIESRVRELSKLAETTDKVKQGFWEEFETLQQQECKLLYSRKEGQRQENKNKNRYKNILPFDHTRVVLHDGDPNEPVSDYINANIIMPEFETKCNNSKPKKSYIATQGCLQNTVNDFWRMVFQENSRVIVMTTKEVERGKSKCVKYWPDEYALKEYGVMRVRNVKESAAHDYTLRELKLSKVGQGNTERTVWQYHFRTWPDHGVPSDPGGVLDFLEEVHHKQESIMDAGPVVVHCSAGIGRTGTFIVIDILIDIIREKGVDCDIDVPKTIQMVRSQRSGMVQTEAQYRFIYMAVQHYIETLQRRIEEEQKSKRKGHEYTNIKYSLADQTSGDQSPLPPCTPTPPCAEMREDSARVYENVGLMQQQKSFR
Method: HEK293, SKBR3, U2OS, MCF7 and A549 cells were grown in DMEM supplemented with 10% FBS, penicillin (50 units/mL), and streptomycin (50 μg/mL) in a 37 °C incubator containing 5% CO2. KYSE-520 and H358 cells were grown in RPMI-1640 supplemented with 10% FBS, penicillin (50 units/mL), and streptomycin (50 μg/mL) in a 37 °C incubator containing 5% CO2. For western-blot analysis, protein samples were separated by SDS-PAGE, transferred to nitrocellulose membranes, and incubated overnight at 4 °C with corresponding primary antibodies diluted in 5% BSA in phosphate-buffered saline Tween (PBST). SuperSignal™ West Pico PLUS (PI34580; Thermo Scientific) was used to visualize the antibodies in the bioanalytical imaging system (Azure Biosystems c500). Anti-p-ERK1/2 (T202/Y204) (4370), and anti-ERK1/2 (4696) were purchased from Cell Signaling Technology. Anti-GAPDH (sc-365062), anti-SHP2 (sc-7384), anti-SHP1 (sc-7289), and anti-Actin (sc-8432) antibodies were purchased from Santa Cruz. Anti-PTP1B (ab244207) antibody was purchased from Abcam. For colony formation assay, a total of approximately 200–500 cells were seeded to each well in a 12-well plate. The wells were then treated with DMSO, compound P9 and 3 at 37 °C for 3 weeks, gently washed, and stained with crystal violet.

Cc1ncsc1-c1ccc([C@H](C)NC(=O)[C@@H]2C[C@@H](O)CN2C(=O)[C@@H](NC(=O)CCCCCCCCCN2CCN(C(=O)CCCCCC3(CN)CCN(c4cnc(Sc5cccc(Cl)c5Cl)c(N)n4)CC3)CC2)C(C)(C)C)cc1 [P9, (2S,4R)-1-((S)-2-(10-(4-(6-(1-(6-amino-5-((2,3-dichlorophenyl)thio)pyrazin-2-yl)-4-(aminomethyl)piperidin-4-yl)hexanoyl)piperazin-1-yl)decanamido)-3,3-dimethylbutanoyl)-4-hydroxy-N-((S)-1-(4-(4-methylthiazol-5-yl)phenyl)ethyl)pyrrolidine-2-carboxamide]
> 10 µM: IC50 (CD45; pNPP 5 mM) | IC50 (CDC-14A; pNPP 0.05 mM) | IC50 (FAP-1; pNPP 0.5 mM) | IC50 (HePTP; pNPP 6 mM) | IC50 (LMW-PTP; pNPP 2 mM) | IC50 (LYP; pNPP 5 mM) | IC50 (Laforin; pNPP 4 mM) | IC50 (PTP-MEG2; pNPP 6 mM) | IC50 (PTP-α; pNPP 2 mM) | IC50 (PTP1B; pNPP 2 mM) | IC50 (SHP1; pNPP 3 mM) | IC50 (STEP; pNPP 2 mM) | IC50 (TC-PTP; pNPP 2 mM) | IC50 (VHR; pNPP 5 mM)
> 105: Fold selectivity CD45 (CD45; over SHP2) | Fold selectivity CDC-14A (CDC-14A; over SHP2) | Fold selectivity FAP-1 (FAP-1; over SHP2) | Fold selectivity HePTP (HePTP; over SHP2) | Fold selectivity LMW-PTP (LMW-PTP; over SHP2) | Fold selectivity LYP (LYP; over SHP2) | Fold selectivity Laforin (Laforin; over SHP2) | Fold selectivity PTP-MEG2 (PTP-MEG2; over SHP2) | Fold selectivity PTP-α (PTP-α; over SHP2) | Fold selectivity PTP1B (PTP1B; over SHP2) | Fold selectivity SHP1 (SHP1; over SHP2) | Fold selectivity STEP (STEP; over SHP2) | Fold selectivity TC-PTP (TC-PTP; over SHP2) | Fold selectivity VHR (VHR; over SHP2)
~0.13 µM: DC50 (SHP2)

Source: paper PMC10574094, “Discovery of a SHP2 Degrader with In Vivo Anti-Tumor Activity” (Molecules, 2023)
